In US20150011471A1, “REGENERATION OF ISLET BETA CELLS BY HSP60 DERIVED PEPTIDES” (Yeda Research and Development Co. Ltd., priority 2012, published 2015):
Where two headings read alike, the source gives them in different places. Where no end group is shown, it is not given here.

Experiments:
advanced T1D in NOD mice = system: advanced T1D in NOD mice
Source text: Female non-obese diabetic (NOD) mice, which spontaneously develop autoimmune diabetes that mimics human T1D, are used to test the ability of the Hsp60 peptides and peptide analogs to induce regeneration of pancreatic beta cells. The NOD model is described, for example in Elias and Cohen (Lancet 1994, 343, 704-706). Female NOD mice raised under specific pathogen free (SPF) conditions develop insulitis around 4 weeks of age. […] In addition, the actual appearance of new beta cells, detected by increased C-peptide levels is measured in the revised protocol and not just preservation of initial C-peptide levels as in the original protocol.
Groups of 7 weeks old NOD/ShiLtJ mice (Jackson Number 001976, 10 mice per group) were used. Fasting blood glucose was monitored three times per week during all the treatment period, using methods known in the art. After about 12-20 weeks, when blood glucose reaches a level of […] the mice are treated with insulin in order to keep them alive and divided randomly between the following group treatments: • 1. no treatment; • 2. […]® only, once a week; • 3.
Fasting glucose was measured Hemoglobin A1C and C-peptide levels were measured at the end of treatment, up to six months, depending on the conditions of the control and treated animals.
Histology was performed to detect and count beta cells in pancreatic islets and to observe islet infiltrates. Histology was performed by staining for insulin and detection of appearance of beta cells, as described for example in Lumelsky et al, Science 2001, 292, 1389-1394.

NOD mice = settings: subcutaneous administration; cited from earlier work

Substance | Islets per whole section (advanced T1D in NOD mice; 100 μg in INTRALIPID, SC, 1 injection/week) | Islets per whole section (advanced T1D in NOD mice; 100 μg in PBS, IP, 3 injections/week) | Islets per whole section (advanced T1D in NOD mice; 200 μg in INTRALIPID, SC, 1 injection/week) | Lymphocyte infiltrates compared to control mice treated with placebo (advanced T1D in NOD mice; treated mice overall, Table 1) | Number of beta islets compared to control mice treated with placebo (advanced T1D in NOD mice; treated mice overall, Table 1) | Development of diabetes in NOD mice (NOD mice) | T-cell reactivity to beta cell antigens (NOD mice)
VLGGGVALLRVIPALDSLTPANED [DiaPep277] | 3 | 2 | 1 | less lymphocyte infiltrates | increased number of beta islets |  | 
p277: specific peptide of human Hsp60, one of the immunodominant epitopes in autoimmune diabetes; native cysteines at positions 6 and 11 (VLGGGCALLRCIPALDSLTPANED; UniProt P10809 437-460, looked up, fragment) |  |  |  |  |  | prevented the development of diabetes | down-regulated
